Experimental data published in patent publication US8003615B2, “Stable vitamin B6 derivative” (Daiichi Fine Chemical Co., Ltd., priority 2003, dated 2011).

Experiments:
[1] = Thermal stability of aqueous solution kept at 50° C., HPLC; assay type: physicochemical; details: 0.5% (w/v) aqueous solution, 50° C. for 90 days
Description: A 0.5% (w/v) aqueous solution of pyridoxine 3-β-D-glucoside (pH 6.7) in a volume of 0.3 ml was sealed in a 1-ml volume glass ampoule, and kept at 50° C. under light shielding. The sample was warmed for 90 days, and analyzed during the warming by HPLC (analysis conditions were the same as those applied in Test Example 1) to measure a pyridoxine 3-β-D-glucoside content. A solution of pyridoxine hydrochloride of the same concentration (adjusted to pH 6.7) was treated in the same manner, and the results were compared.
Aqueous solutions (0.5% (w/v)) of pyridoxine 3-β-D-glucoside hydrochloride, pyridoxal 3-β-D-glucoside, pyridoxamine 3-β-D-glucoside, pyridoxine 3-β-D-galactoside, pyridoxine hydrochloride, pyridoxal hydrochloride, and pyridoxamine hydrochloride (adjusted to pH 6.3 to 7.2 with HCl or NaOH) were each sealed in a volume of 0.3 ml in a 1-ml volume glass ampoule, […] in the same manner as in Test Example 2.
0.5% (w/v) Aqueous solutions of pyridoxine 3,4′-cyclic sodium phosphate and pyridoxine hydrochloride (adjusted to pH 6.5 to 6.8) were each sealed in a volume of 0.3 ml in a 1-ml volume glass ampoule, and warming at 50° C. and HPLC analysis were performed in the same manner as in Test Example 2.

[2] = assay type: physicochemical; details: 0.5% (w/v) aqueous solution, D65 fluorescent lamp 13,000 Lx
Description: A 0.5% (w/v) aqueous solution of pyridoxine 3-β-D-glucoside (pH 6.7) in a volume of 0.3 ml was enclosed in a 1-ml volume glass ampoule, and irradiated with a D65 fluorescent lamp (Toshiba) for 14 days. The irradiation was performed at room temperature with an illumination of 13,000 Lx. Samples before the irradiation and after 1 day, 7 days and 14 days of the irradiation were analyzed by HPLC to measure a pyridoxine 3-β-D-glucoside content. A solution of pyridoxine hydrochloride of the same concentration (adjusted to pH 6.7) was treated in the same manner, and the results were compared. The HPLC measurement conditions were as follows.
Column: Inertsil ODS-3 ([…], ([…], φ4.6×150 mm, GL Science Inc.)
Eluent acetonitrile:0.1% (v/v) trifluoroacetic acid, 5 mM sodium 1-hexanesulfonate=1:9
Column temperature: 40° C.
Aqueous solutions (0.5% (w/v)) of pyridoxine 3-β-D-glucoside hydrochloride, pyridoxal 3-β-D-glucoside, pyridoxamine 3-β-D-glucoside, pyridoxine 3-β-D-galactoside, and pyridoxine hydrochloride (adjusted to pH 6.3 to 7.2 with HCl or NaOH) were each sealed in a volume of 0.3 ml in a 1-ml volume glass ampoule, and light irradiation and HPLC quantification were performed in the same manner as in Test Example 1. […] Test Example 4 (thermal stability of pyridoxine 3-β-D-glucoside hydrochloride and various 3-glycosides) […]

[3] = Light stability in a shampoo; assay type: physicochemical
Description: Sodium coconut oil fatty acid methyltaurine (10.0 g), polyoxyethylene alkyl ether sodium sulfate (20.0 g), lauryl dimethylaminoacetate betaine (10.0 g), coconut oil fatty acid diethanolamide (4.0 g), propylene glycol (2.0 g), vitamin B6 derivative (0.1 g), and methyl paraoxybenzoate (0.01 g) were added to purified water (40 ml), and warmed to 70° C. for dissolution. The solution was cooled to a temperature below 35° C., and then adjusted to pH 6.8 with 10% aqueous citric acid, and made into a volume of 100 ml with purified water to prepare a shampoo. In this preparation, precipitates and the like were not observed. The prepared shampoo in a volume of 6 ml was filled in a glass bottle, and exposed to light of a D65 fluorescent lamp at a total illumination of 0, 60,000, 180,000, or 300,000 lux·hr, and then the vitamin B6 derivative was quantified. The same sample was separately stored at 50° C., and after 0 day, 14 days, one month, and two months, the vitamin B6 derivative was quantified by the HPLC method in the same manner as in Test Example 11 mentioned above.

[4] = Light stability in an eye lotion; assay type: physicochemical
Description: Neostigmine methylsulfate (5 mg), potassium L-aspartate (0.4 g), boric acid (5 mg), sodium borate (5 mg), methyl paraoxybenzoate (10 mg), chlorobutanol (0.1 g), and vitamin B6 derivative (0.1 g) were dissolved in sterilized purified water (70 ml). After dissolution, the solution was made into a volume of 100 ml with sterilized purified water to prepare an eye lotion. In this preparation, precipitates and the like were not observed. The prepared eye lotion in a volume of 6 ml was put into a glass bottle, and exposed to light of a D65 fluorescent lamp at a total illumination of 0, 60,000, 180,000, or 300,000 lux·hr, and then the vitamin B6 derivative was quantified by the HPLC method in the same manner as in Test Example 11 mentioned above.

[5] = Light stability in a lotion; assay type: physicochemical
Description: Ceramide formulation (0.1 g), 1,3-butylene glycol (2.5 g), dipropylene glycol (2.5 g), and methylparaben (0.01 g) were warmed at 80° C. and stirred until the mixture became transparent. The mixture was cooled to 35° C., then added with 0.1 g of a vitamin B6 derivative (pyridoxine 3-β-D-glucoside, pyridoxine 3-β-D-glucoside hydrochloride, or pyridoxine 3,4-cyclic sodium phosphate: in Test Examples 11 to 16 mentioned below, the “vitamin B6 derivative” means one of these three kinds of substances) or 0.1 g of pyridoxine 3-sodium sulfate, 1.0 g of sorbitol-fermented polysaccharide and 90 ml of purified water with stirring, and the mixture were stirred until the added substances were dissolved. The solution was adjusted to pH 6.4 with 10% aqueous citric acid, and made into a volume of 100 ml with purified water to prepare a lotion. In this preparation, precipitates and the like were not observed. The prepared lotion in a volume of 6 ml was filled in a glass bottle, and exposed to light of a D65 fluorescent lamp at a total illumination of 0, 60,000, 180,000, or 300,000 lux·hr, and then the vitamin B6 derivative was quantified. The same sample was separately stored at 50° C., and after 0 day, 14 days, one month, and two months, the vitamin B6 derivative was quantified by the HPLC method described in Test Example 1.

With `Cc1ncc(CO)c(CO)c1O.Cl` [pyridoxine hydrochloride] the “coloring of the aqueous solution after the warming” value [1] was “colored in yellow”, the “coloring of the aqueous solution after the light irradiation” value [2] was “colored in pale yellow” and the “remained substance in shampoo after irradiation” value ([3]; shampoo pH 6.8, D65 fluorescent lamp, 180,000 lux·hr for 3 days) was 60%. The “remained substance in shampoo after irradiation” value ([3]; shampoo pH 6.8, D65 fluorescent lamp, 300,000 lux·hr for 5 days) was 58%, the “remained substance in eye lotion after irradiation” value ([4]; D65 fluorescent lamp, 180,000 lux·hr for 3 days) was 68% and the “remained substance in eye lotion after irradiation” value ([4]; D65 fluorescent lamp, 300,000 lux·hr for 5 days) was 49%. For the same molecule, the “remained substance in lotion after irradiation” value ([5]; lotion pH 6.4, D65 fluorescent lamp, 180,000 lux·hr for 3 days) was 42% and the “remained substance in lotion after irradiation” value ([5]; lotion pH 6.4, D65 fluorescent lamp, 300,000 lux·hr for 5 days) was 30%.
